According to ChEMBL document CHEMBL4028843, “Synthesis of both enantiomers of 1,2,3,4-tetrahydroisoquinoline derivative IPPAM-1 and enantio-dependency of its positive allosteric modulation of prostacyclin receptor” (Bioorg Med Chem Lett, 2017):

Target: Prostacyclin receptor (Homo sapiens) (UniProt P43119)
Assay: Positive allosteric modulation of human prostacyclin receptor expressed in CHOK1 cells assessed as increase in PGI2-induced cAMP production by measuring 2 fold leftward shift in PGI2 concentration response curve measured after 1 hr
Type: functional, cell-based

Prostacyclin receptor (Homo sapiens), sequence (P43119 whole entry): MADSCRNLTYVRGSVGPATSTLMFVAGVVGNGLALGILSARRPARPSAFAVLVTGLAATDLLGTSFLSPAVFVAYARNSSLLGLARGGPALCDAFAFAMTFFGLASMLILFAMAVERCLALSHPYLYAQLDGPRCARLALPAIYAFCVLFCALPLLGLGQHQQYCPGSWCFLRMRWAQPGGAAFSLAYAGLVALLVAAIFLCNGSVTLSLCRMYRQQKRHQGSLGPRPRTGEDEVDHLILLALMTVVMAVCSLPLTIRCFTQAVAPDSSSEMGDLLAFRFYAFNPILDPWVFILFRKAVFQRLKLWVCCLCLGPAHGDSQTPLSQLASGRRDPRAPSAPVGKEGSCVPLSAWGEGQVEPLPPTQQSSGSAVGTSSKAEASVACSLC

- Activity: 3.1 µM
SMILES: CC(C)(C)n1nnnc1[C@@H](c1ccccc1)N1CCc2ccccc2C1
